{
  "source": "patent EP0267740A1",
  "about": "“Naphthyridine and pyridopyrazine compounds and pharmaceutical usage thereof” (SCHERING CORPORATION, priority 1986, dated 1988)",
  "key": {"[1]": {"assay": "Reversed Passive Arthus Reaction (RPAR) paw technique, anti-inflammatory test", "type": "in vivo, Male Lewis inbred albino rats", "conditions": "Oral Dose 25 mg/kg by gavage in methyl cellulose, rat paw volume 2 hours post-challenge", "protocol": "The compounds of this invention are also effective for the treatment of inflammation; thus they are useful for the treatment of arthritis, bursitis, tendonitis, gout and other inflammatory conditions. […] The potency of the compounds described and claimed herein for treatment of inflammatory conditions is determined using indomethacin as the standard.\nMale Lewis inbred albino rats weighing 180-220 grams obtained from Charles River Breeding Laboratories are used in these experiments. The rats are housed 3 animals/cage and food and water are allowed ad libitum. The animals are numbered 1-3 in each cage and color marked for identification purposes.\nAll reagents and drugs are prepared just prior to the study. Crystallized and lyophilized bovine serum albumin (BSA), obtained from Sigma Chemical Company, is solubilized without shaking in cold sterile pyrogen free saline (10 mg/ml). […]\nGroups of animals (6/group) are dosed with drug in MC by gavage one hour prior to sensitization with BSA. […] The volume of mercury displaced is converted to weight and recorded. […] Paw volumes are also recorded with a plethysmograph during the development of the inflammation at 2 and 4 hours post-challenge, and the results are shown in Table B below."}, "[2]": {"tested_on": "release of SRS-A from sensitized guinea pig lung fragments", "assay": "Measurement of SRS-A release from sensitized guinea pig lung fragments after antigen (ovalbumin) challenge", "type": "cell-based", "conditions": "Dose (Molar Conc.) 1 x 10^-5; lung fragments incubated with compound 12 min at 37°C, challenge with 20µg ovalbumin/ml", "protocol": "The anti-allergy property of the compounds of this invention is evaluated by measuring the inhibition of the release of the mediator SRS-A (slow reacting substance of anaphylaxis) from sensitized guinea pig lung fragments after antigen challenge.\nThe release of SRS-A and histamine was studied in lungs from actively sensitized guinea pigs. Male Hartley guinea pigs (250-300 g, obtained from Charles River or Dutchland Farms) were sensitized with 5 mg ovalbumin injected intraperitoneally and 5 mg subcutaneously in 1 ml saline on day one, and 5 mg ovalbumin injected intraperitoneally on day four. The sensitized animals were used 3-4 weeks later.\nSensitized guinea pigs were killed by a blow to the head and the lungs removed and cleaned of visable connective tissue, trachea and large blood vessels. The lungs from individual animals were sliced into fragments approximately 1 mm in thickness using a McIlwain chopper and then washed with oxygenated Tyrode's buffer. Weighed aliquots (approximately 400 mg wet weight) of lung were transferred into vials containing 2 ml of fresh Tyrode's solution and incubated in the presence or absence of test compound for 12 min at 37°C followed by challenge of the tissue with 20µg ovalbumin/ml (final concentration). After an additional 15 min incubation, the vials were cooled to 4°C and 1.5 ml of clear supernatant media was removed and mixed with 6 ml of cold 100% ethanol. This mixture was thoroughly vortexed and kept at -15°C for 30 min to allow precipitation of protein. The samples were then centrifuged at 1000 x g for 15 min at 2°C and the clear supernatant fluid removed into polyethylene tubes and taken to dryness at 50°C under a stream of N₂ gas. The samples were stored at -70°C until assayed for SRS-A by bioassay or radioimmune assay."}},
  "data": [
    {"compound": "CCCCc1c(O)c2cccnc2n(-c2ccc3c(c2)CCC3)c1=O", "note": "[3-(n-BUTYL)-4-HYDROXY-1-(5-INDANYL)-1,8-NAPHTHYRIDIN-2(1H)-ONE]", "values": [
      {"measurement": "% Inhibition 2 hrs.", "setting": "[1]", "result": 23, "unit": "%"},
      {"measurement": "% Inhibition (INHIBITION OF SRS-A RELEASE FROM GUINEA PIG LUNG)", "setting": "[2]", "result": 55, "unit": "%"}
    ]},
    {"compound": "O=C1CCN(c2ccccc2)N1", "note": "[1-phenyl-3-pyrazolidinone, reference compound]", "values": [
      {"measurement": "% Inhibition (INHIBITION OF SRS-A RELEASE FROM GUINEA PIG LUNG)", "setting": "[2]", "result": 41, "unit": "%"}
    ]},
    {"compound": "CCCCc1c(O)c2cccnc2n(-c2cccnc2)c1=O", "values": [
      {"measurement": "% Inhibition 2 hrs.", "setting": "[1]", "result": 64, "unit": "%"},
      {"measurement": "% Inhibition (INHIBITION OF SRS-A RELEASE FROM GUINEA PIG LUNG)", "setting": "[2]", "result": 33, "unit": "%"}
    ]}
  ]
}
